In patent US20140288110A1, “PPAR MODULATORS” (EVOLVA SA, priority 2006, published 2014):

What was measured:
Format in all cases: cell-based
3T3-L1 cells = test: Adipocyte differentiation assay, inhibition, Oil Red O staining
Procedure: To test compounds as inhibitors of adipocyte differentiation, 3T3-L1 cells are grown as above until two-day postconfluence (designated day 0), after which the cells are induced to differentiate with DMEM containing 10% fetal bovine serum (FBS), 1 μM dexamethasone (Sigma), 0.5 mM methylisobutylxanthine (Sigma), 1 μg/ml insulin (Roche Molecular Biochemicals) and the test-compound. Cells induced to differentiate in presence of solvent of the test-compounds are used as positive control. After 48 h, the cells are re-fed with DMEM containing 10% FBS supplemented with the test compound or the positive control. From day 4, cells are grown in DMEM with 10% FBS and are changed every second day until day 8. At day 8, cells are stained with Oil Red O as described below.
Cells cultured as described above are used for Oil Red staining. Dishes are washed in PBS and cells were fixed in 3.7% paraformaldehyde for 1 h and stained with oil red O as described in (Hansen et al 1999). Oil red O solution stock solution is prepared by dissolving 0.5 g of Oil Red O (Sigma) in 100 ml of isopropanol. Oil re O working solution is prepared by diluting a stock solution with water (6:4) followed by filtration.

hRXRαLBD = biological target: T1, hRXRαLBD (Homo sapiens, UniProt P19793); test: RXR transactivation assay (hRXRαLBD)
T1 construct: expressed in transfected cells
T1 sequence (P19793 227-458 limits assumed): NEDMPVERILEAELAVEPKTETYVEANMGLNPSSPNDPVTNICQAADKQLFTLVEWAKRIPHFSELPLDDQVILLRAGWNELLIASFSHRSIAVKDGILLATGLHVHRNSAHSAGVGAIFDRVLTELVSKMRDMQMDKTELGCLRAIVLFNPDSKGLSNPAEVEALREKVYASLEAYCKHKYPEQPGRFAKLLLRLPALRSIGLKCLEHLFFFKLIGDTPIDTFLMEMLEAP
Procedure: This example describes a retinoic acid X receptor transactivation assay.
Compounds are tested for their ability to transactivate RXR essentially as described in Example 1.

full-length hPPARdelta = biological target: T2, full-length hPPARdelta (Homo sapiens, UniProt Q03181); test: Transactivation assay with full length human PPAR delta
T2 construct: expressed in transfected cells
T2 sequence (Q03181 1-441): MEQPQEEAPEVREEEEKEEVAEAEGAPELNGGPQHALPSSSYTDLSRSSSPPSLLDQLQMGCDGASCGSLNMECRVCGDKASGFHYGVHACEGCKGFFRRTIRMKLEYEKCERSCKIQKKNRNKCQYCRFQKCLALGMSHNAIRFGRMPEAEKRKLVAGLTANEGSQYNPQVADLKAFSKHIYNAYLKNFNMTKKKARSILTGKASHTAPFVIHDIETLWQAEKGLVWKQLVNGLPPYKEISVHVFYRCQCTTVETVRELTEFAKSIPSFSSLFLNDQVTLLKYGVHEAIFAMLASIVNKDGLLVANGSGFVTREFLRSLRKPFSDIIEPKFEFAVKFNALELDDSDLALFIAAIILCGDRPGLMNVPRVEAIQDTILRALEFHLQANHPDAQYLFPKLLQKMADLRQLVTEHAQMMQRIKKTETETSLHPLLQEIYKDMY

HaCaT = test: Proliferation of non-cancer cell line HaCaT, flow cytometry; settings: 20 microM, 48 hours of treatment
Procedure: (§1) A human cervical carcinoma cell line (HeLa) engineered to stably express a recombinant biosensor reporter activity and a non-cancer cell line, HaCaT (Boukamp et al., 1988, J. Cell Biol 106(3):761-771) was used with a Caspa Tag kit (commercially available eg from Chemicon). The detection of proliferation was carried out using a high content screening automated flow cytometer.
(§2) DPD (Substance 1) was diluted to 20 microM in cell culture medium without serum adjusted to 1% DMSO. Detection of cellular events was performed in duplicate in 96-well plates after 48 hours of treatment in the FL2 (dilution of a proliferative marker) channels of a HTS flow cytometer (FACS Calibur HTS, Becton Dickenson). At day 1, cells were seeded in 96 well plates. Cells were treated with DPD and the appropriate controls on day 2 and analysis was carried out on day 4.

mPPARdeltaLBD = biological target: T3, mPPARdeltaLBD (Mus musculus, UniProt P35396); test: PPARdelta transactivation assay (mPPARdeltaLBD)
T3 construct: expressed in transfected cells
T3 sequence (P35396 210-438 limits assumed): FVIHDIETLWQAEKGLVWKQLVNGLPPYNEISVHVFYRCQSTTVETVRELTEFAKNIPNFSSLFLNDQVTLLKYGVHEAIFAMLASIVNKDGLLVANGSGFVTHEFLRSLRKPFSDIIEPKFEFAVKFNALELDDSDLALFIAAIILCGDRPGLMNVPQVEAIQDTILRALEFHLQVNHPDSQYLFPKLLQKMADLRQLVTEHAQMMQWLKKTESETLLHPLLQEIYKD
Procedure: This example describes a transactivation assay for determining PPARdelta modulating activity.
DPD and other ligands are tested for their ability to transactivate PPARdelta essentially as described in Example 1.

[1] = test system: human cervical carcinoma cell line (HeLa); test: Inhibition of cancer cell proliferation, HeLa, flow cytometry; settings: 48 hours of treatment, read-out: inhibition of proliferation of HeLa cells
Procedure: as §1, §2

mPPARalphaLBD = biological target: T4, mPPARalphaLBD (Mus musculus, UniProt P23204); test: PPARalpha transactivation assay (mPPARalphaLBD)
T4 construct: expressed in transfected cells
T4 sequence (P23204 239-466 limits assumed): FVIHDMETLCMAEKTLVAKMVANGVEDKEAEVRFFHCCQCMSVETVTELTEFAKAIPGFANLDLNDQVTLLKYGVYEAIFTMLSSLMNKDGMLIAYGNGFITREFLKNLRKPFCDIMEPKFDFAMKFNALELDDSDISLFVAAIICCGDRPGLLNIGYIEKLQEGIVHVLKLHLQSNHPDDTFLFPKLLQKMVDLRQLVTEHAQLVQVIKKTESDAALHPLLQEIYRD
Procedure: This example describes a transactivation assay for determining PPARalpha modulating activity.
DPD and other ligands are tested for their ability to transactivate PPAR alpha essentially as described in Example 1.

3T3-L1 preadipocytes = test: Glucose uptake assay; set-up: dose or concentration left out as unconfirmed; settings: SN1
Procedure: Glucose uptake assays are important to establish the suitability of a compound for the treatment of insulin resistance.
Briefly, 3T3-L1 preadipocytes are grown in 12-well plates until confluence. Cells are washed with serum-free DMEM and incubated with 1 ml of the same medium at 37° C. for 1-2 h. The cells are then washed with […] (KRP) buffer and then incubated with 0.9 ml KRP buffer at 37° C. for 30 min. Insulin is added to the cells at 0, 0.3, 1 and 3 nM final concentration and incubated for 15 min at 37° C. Glucose uptake is initiated by the addition of 0.1 ml of Krebs-Ringer phosphate (KRP) buffer supplemented with 10 mM [^3H] 2-deoxy-D-glucose (1 mCi/l). After a 10 minute incubation at 37° C., the medium is aspirated and plates washed with ice-cold PBS to terminate the induced glucose uptake. The cells are lyzed with 0.5 ml 1% Triton X-100 and radioactivity levels determined using a scintillation counter. The results are depicted in FIG. 7.

- increase of RXR transactivation (hRXRαLBD): no transactivation
- activation of full-length hPPARdelta (full-length hPPARdelta): no activation was seen
- increase of PPAR delta transactivation (mPPARdeltaLBD): no or little increase in transactivation
- increase of PPAR alpha transactivation (mPPARalphaLBD): no transactivation
SMILES: O=C(O)CC/C=C\C[C@@H]1CO[C@H](c2ccccc2Cl)O[C@@H]1c1ccccc1O (racemic) [SN1, 4-(Z)-6-(2-o-chlorophenyl-4-o-hydroxyphenyl-1,3-dioxan-cis-5-yl) hexenoic acid]
- inhibition of adipocyte differentiation (3T3-L1 cells): no significant effect
- effect on the non-cancer cell line HaCaT (HaCaT): no effect
- inhibition at 20 µM [1]: 90%
- glucose uptake compared with Avandia (3T3-L1 preadipocytes): same level of glucose uptake
